These compounds were tested against T1, recombinant full-length USP7 (Homo sapiens, UniProt Q93009) (assay: USP7-mediated ubiquitin-rhodamine cleavage assay). Details: recombinant full-length USP7 62 pM; ubiquitin-rhodamine 100 nM; 30-minute incubation with compound, 1 hour reaction at room temperature; read-out: Potency: USP7 IC50.
T1 construct: A 25 μl reaction volume containing recombinant full-length USP7 (62 pM)
T1 sequence (Q93009 whole entry): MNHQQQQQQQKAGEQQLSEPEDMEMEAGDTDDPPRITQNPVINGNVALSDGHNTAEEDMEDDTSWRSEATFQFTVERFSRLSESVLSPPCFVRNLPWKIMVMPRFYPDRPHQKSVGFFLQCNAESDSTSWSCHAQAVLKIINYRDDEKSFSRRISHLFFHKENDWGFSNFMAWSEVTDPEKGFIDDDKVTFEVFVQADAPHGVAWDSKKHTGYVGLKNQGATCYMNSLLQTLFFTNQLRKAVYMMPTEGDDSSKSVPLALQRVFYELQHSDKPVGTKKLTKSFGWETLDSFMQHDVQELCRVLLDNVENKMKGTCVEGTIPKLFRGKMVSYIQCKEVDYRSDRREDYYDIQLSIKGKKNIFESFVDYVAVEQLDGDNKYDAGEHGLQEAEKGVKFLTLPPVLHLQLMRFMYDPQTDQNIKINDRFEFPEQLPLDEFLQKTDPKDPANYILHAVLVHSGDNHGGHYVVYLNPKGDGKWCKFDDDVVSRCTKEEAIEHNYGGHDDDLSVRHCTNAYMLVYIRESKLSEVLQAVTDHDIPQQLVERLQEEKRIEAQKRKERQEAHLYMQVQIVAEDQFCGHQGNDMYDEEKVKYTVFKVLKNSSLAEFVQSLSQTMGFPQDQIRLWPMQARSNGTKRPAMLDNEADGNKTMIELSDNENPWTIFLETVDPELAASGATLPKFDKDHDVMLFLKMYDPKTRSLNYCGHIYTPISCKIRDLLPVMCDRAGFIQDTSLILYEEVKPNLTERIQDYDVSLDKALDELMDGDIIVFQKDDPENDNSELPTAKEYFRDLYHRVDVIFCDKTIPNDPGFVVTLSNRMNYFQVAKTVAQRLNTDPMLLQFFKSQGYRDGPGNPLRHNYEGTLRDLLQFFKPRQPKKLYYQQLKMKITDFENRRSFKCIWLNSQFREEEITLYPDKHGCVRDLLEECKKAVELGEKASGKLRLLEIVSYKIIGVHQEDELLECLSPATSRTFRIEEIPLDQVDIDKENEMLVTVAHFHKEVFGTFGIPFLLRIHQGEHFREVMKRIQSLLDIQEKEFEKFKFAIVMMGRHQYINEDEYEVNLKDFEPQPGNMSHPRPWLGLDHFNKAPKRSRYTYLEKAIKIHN
Assay type: biochemical
Summary of the method: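 Rhodamine fluorescence read-out after acetic acid stop; IC50 by 4-parameter nonlinear regression. Enzyme at 62 pM, substrate ubiquitin-rhodamine 100 nM final, 1 h at room temperature in the dark, after 30 min compound preincubation. Buffer: HEPES pH 7.3, NaCl, TCEP, BSA; 1% DMSO.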
With Cc1cc(Cl)cc(-c2ccnc3cc(CN4C(=O)CCC4=O)ccc23)c1O[C@@H]1CNC[C@@H]1F [Example 100, 1-((4-(5-Chloro-2-(((3R,4S)-4-fluoropyrrolidin-3-yl)oxy)-3-methylphenyl)quinolin-7-yl)methyl)pyrrolidine-2,5-dione] the IC50 was 10000 to 30000 nM.
Cc1cc(Cl)cc(-c2ccnc3cc(CO)sc23)c1O[C@H]1C[C@H]2CC[C@@H](C1)N2 [Example 193, (7-(2-(((1R,3r,5S)-8-Azabicyclo[3.2.1]octan-3-yl)oxy)-5-chloro-3-methylphenyl)thieno[3,2-b]pyridin-2-yl)methanol] gave an IC50 of 1000 to 10000 nM.
Cc1cc(Cl)cc(-c2ccnc3cc(CO)sc23)c1OC(C)C1CNC1 (centres unmarked) [Example 32, (7-(2-(1-(Azetidin-3-yl)ethoxy)-5-chloro-3-methylphenyl)thieno[3,2-b]pyridin-2-yl)methanol] showed an IC50 of 10000 to 30000 nM.
Cc1cc(Cl)cc(-c2ccnc3cc(CO)sc23)c1O[C@@H]1C[C@H]2CC[C@@H](C1)N2 [Example 192, (7-(2-(((1R,3S,5S)-8-Azabicyclo[3.2.1]octan-3-yl)oxy)-5-chloro-3-methylphenyl)thieno[3,2-b]pyridin-2-yl)methanol] gave an IC50 of 1000 to 10000 nM.
N#Cc1cc(Cl)cc(-c2ccnc3cc(CN4C(=O)CCC4=O)sc23)c1O[C@@H]1CNC[C@@H]1F [Example 121, 5-Chloro-3-(2-((2,5-dioxopyrrolidin-1-yl)methyl)thieno[3,2-b]pyridin-7-yl)-2-(((3R,4S)-4-fluoropyrrolidin-3-yl)oxy)benzonitrile] showed an IC50 of under 1000 nM.

Same assay, conditions: recombinant full-length USP7 62 pM; ubiquitin-rhodamine 100 nM; 30-minute incubation, 1 hour reaction at room temperature; read-out: Potency (USP7 IC50)
Work on Cc1cc(Cl)cc(-c2ccnc3cc(CN4C(=O)CN(CC(F)(F)F)C4=O)sc23)c1O[C@H]1CCCNC1 [Example 693, 3-[[7-[5-chloro-3-methyl-2-[[(3S)-3-piperidyl]oxy]phenyl]thieno[3,2-b]pyridin-2-yl]methyl]-1-(2,2,2-trifluoroethyl)imidazolidine-2,4-dione; 2,2,2-trifluoroacetic acid] yielded an IC50 of under 1000 nM.
In the case of COC[C@@H]1CCC[N+]1(C)C1CC(Oc2c(C)cc(Cl)cc2-c2ccnc3cc(Cn4c(=O)ccn(CC(F)(F)F)c4=O)sc23)C1 (stereo partly drawn) [Example 688, 3-[[7-[5-chloro-2-[3-[(2S)-2-(methoxymethyl)-1-methyl-pyrrolidin-1-ium-1-yl]cyclobutoxy]-3-methyl-phenyl]thieno[3,2-b]pyridin-2-yl]methyl]-1-(2,2,2-trifluoroethyl)pyrimidine-2,4-dione; 2,2,2-trifluoroacetate; 2,2,2-trifluoroacetic acid], the IC50 is reported as under 1000 nM.

Same assay, conditions: recombinant full-length USP7 62 pM; ubiquitin-rhodamine 100 nM; 30-minute pre-incubation, 1 hour reaction at room temperature; read-out: Potency (USP7 IC50)
Cc1c(F)c(Cl)cc(-c2ccnc3cc(CN4C(=O)CCC4=O)sc23)c1O[C@H]1CCCNC1 [Example 433, 1-[[7-[5-chloro-4-fluoro-3-methyl-2-[[(3S)-3-piperidyl]oxy]phenyl]thieno[3,2-b]pyridin-2-yl]methyl]pyrrolidine-2,5-dione; 2,2,2-trifluoroacetic acid] showed an IC50 of 1000 to 10000 nM.
Work on Cc1cc(Cl)cc(-c2ccnc3cc(CN4C(=O)CCC4=O)sc23)c1O[C@@H]1CN[C@@H]2COC[C@@H]21 [Example 430, 1-[[7-[2-[[(3S,3aR,6aS)-2,3,3a,4,6,6a-hexahydro-1H-furo[3,4-b]pyrrol-3-yl]oxy]-5-chloro-3-methyl-phenyl]thieno[3,2-b]pyridin-2-yl]methyl]pyrrolidine-2,5-dione] yielded an IC50 of under 1000 nM.
With O=C1CCC(=O)N1Cc1cc2nccc(-c3cc(Cl)cc(C(F)F)c3O[C@@H]3CNC[C@@H]3F)c2s1 [Example 428, 1-[[7-[5-chloro-3-(difluoromethyl)-2-[(3R,4S)-4-fluoropyrrolidin-3-yl]oxy-phenyl]thieno[3,2-b]pyridin-2-yl]methyl]pyrrolidine-2,5-dione] the IC50 was under 1000 nM.
Cc1cc(Cl)cc(-c2ccnc3cc(Cn4c(=O)ccn(CC(F)(F)F)c4=O)sc23)c1O[C@@H]1CN(C2CCOC2)C[C@@H]1C (stereo partly drawn) [Example 605, 3-[[7-[5-chloro-3-methyl-2-[(3S,4S)-4-methyl-1-tetrahydrofuran-3-yl-pyrrolidin-3-yl]oxy-phenyl]thieno[3,2-b]pyridin-2-yl]methyl]-1-(2,2,2-trifluoroethyl)pyrimidine-2,4-dione] gave an IC50 of under 1000 nM.
